# Data: patent US20260070887A1 (Shenzhen Zhongge Biological Technology Co., Ltd., priority 2022, published 2026)
# Molecular target: KIF18A (Homo sapiens (Human), UniProt Q8NI77)
# Assay: KIF18A ATPase activity under tubulin stimulation (ADP-Glo assay)
# Type: biochemical
# Conditions: KIF18A 30 nM, ATP 150 μM, pig microtubules
# Protocol: This experiment assesses the inhibitory effect of the compounds of the present disclosure on the KIF18A target according to the IC50 values by measuring the KIF18A ATPase activity under tubulin stimulation with the presence of the compounds.
# • 1. Preparation of 30 mL of reaction buffer: • (1) 450 μL 1M Tris-HCl (pH=7.5)+300 μL 1M MgCl2+30 μL 10% Pluronic F-68 (ThermoFisher, 24040032-100 ml); • (2) adjusting pH to 7.5, and adding water to adjust the volume to 30 mL. • 2. Preparation of a 5 mg/mL pig microtubule (Microtubules; MT) (Cytoskeleton Inc, MT002) stock solution: • (1) 10 mL PM buffer=150 μL 1 M PIPES (pH 7.0)+20 μL 0.5 mM MgCl2+100 μL 2 mM Taxol (Cytoskeleton Inc, TXD01)+9730 μL water. • (2) MT ([…]): Adding 100 μL PM buffer to prepare a 5 mg/mL stock solution. Keeping the MT (Cytoskeleton Inc, MT002) at room temperature for 10-15 minutes, gently mixing and storing same at −80° C. • 3. Preparation of 2 mL of kinase buffer: 2 mL reaction buffer+1 μL 2 mM Taxol (Cytoskeleton Inc, TXD01)+12 μL 5 mg/mL MT (Cytoskeleton Inc, MT002). • 4. Preparation of 2×KIF18A (30 nM) (ChemPartner, CPB-P22-31645) working solution: 2.4 μL 10 μM KIF18A (ChemPartner, CPB-P22-31645)+800 μL 1× kinase buffer. • 5. Preparation of 2×ATP (150 μM) (Promega, G9101) working solution: 12 μL 10 mM ATP+800 μL 1× kinase buffer. • 6. 25 nL of compound was transferred to a 384-well plate using Echo650. • 7. 2.5 μL of 2×KIF18A from Step 4 (final concentration of 30 nM) was added to the 384-well plate and the plate was incubated at 25° C. for 15 minutes. • 8. 2.5 μL of 2×ATP from Step 5 (final concentration of 150 μM) was added to the 384-well plate and the plate was incubated at 25° C. for 15 minutes. • 9. 5 μL ADP-Glo™ Reagent (Promega, G9101) was added to the 384-well plate and the plate was incubated at 25° C. for 40 minutes. • 10. 10 μL of kinase detection reagent (Promega, G9101) was added to the 384-well plate and the plate was incubated at 25° C. for 40 minutes. • 11. Luminescence values were measured using the EnVision Xcite Multilabel Reader (PerkinElmer, 2105-0020).
# Sequence of KIF18A (Q8NI77 whole entry): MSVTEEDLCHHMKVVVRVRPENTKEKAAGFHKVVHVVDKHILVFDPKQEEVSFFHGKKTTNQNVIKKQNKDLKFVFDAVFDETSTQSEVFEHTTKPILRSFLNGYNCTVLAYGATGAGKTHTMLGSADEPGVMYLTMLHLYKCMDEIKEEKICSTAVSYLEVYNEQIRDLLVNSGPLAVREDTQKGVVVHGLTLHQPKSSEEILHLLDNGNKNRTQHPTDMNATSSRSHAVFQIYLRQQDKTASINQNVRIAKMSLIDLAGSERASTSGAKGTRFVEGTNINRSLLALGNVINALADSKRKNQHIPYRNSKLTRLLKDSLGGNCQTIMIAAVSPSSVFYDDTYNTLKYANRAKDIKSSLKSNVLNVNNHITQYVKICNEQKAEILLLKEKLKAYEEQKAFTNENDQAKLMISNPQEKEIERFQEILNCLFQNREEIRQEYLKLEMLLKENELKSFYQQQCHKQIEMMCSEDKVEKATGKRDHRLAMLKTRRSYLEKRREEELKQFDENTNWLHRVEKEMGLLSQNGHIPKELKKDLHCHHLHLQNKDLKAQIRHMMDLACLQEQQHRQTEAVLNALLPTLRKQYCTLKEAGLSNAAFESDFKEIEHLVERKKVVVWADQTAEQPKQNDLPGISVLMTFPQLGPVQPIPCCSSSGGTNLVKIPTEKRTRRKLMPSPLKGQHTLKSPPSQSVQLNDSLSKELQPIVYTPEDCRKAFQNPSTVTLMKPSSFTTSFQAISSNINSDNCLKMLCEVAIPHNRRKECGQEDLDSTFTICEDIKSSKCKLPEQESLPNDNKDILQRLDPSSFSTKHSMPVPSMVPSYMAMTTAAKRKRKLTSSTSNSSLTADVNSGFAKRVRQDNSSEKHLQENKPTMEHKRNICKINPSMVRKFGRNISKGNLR
# Sequence of KIF18A (P02550 whole entry partner): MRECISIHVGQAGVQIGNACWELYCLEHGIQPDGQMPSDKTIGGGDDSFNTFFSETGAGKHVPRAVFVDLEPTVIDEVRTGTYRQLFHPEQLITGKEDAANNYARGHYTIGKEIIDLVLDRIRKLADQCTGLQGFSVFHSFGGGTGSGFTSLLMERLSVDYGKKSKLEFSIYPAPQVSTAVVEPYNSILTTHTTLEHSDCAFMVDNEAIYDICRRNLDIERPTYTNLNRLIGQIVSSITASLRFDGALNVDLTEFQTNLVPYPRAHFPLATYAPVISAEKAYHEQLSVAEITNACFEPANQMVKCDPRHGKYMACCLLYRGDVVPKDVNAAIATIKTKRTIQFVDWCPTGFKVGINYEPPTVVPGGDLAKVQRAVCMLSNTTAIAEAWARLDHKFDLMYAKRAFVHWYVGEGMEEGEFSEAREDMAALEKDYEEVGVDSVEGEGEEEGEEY
# Sequence of KIF18A (P02554 whole entry partner): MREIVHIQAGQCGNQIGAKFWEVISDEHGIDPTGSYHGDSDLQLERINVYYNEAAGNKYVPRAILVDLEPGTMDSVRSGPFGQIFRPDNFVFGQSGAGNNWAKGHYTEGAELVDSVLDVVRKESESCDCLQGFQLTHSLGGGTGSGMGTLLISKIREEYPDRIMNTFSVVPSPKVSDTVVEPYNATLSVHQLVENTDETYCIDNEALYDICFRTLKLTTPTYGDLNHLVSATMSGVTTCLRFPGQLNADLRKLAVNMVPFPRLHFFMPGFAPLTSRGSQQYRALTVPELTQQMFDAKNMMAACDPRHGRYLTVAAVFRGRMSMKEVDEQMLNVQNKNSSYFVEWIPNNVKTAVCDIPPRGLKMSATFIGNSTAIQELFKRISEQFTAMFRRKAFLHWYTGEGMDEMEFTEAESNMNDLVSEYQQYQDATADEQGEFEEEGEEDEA
row,IC50 [nM],SMILES
1,50 to 500,"COC1c2cc3c(NC(=O)c4ccc(NS(=O)(=O)CCO)cc4N4CCC5(CC4)CC5)cccc3n2CCC1(F)F (single isomer, unassigned) [Compound 385-P1, N-(8,8-difluoro-9-(methoxy-d3)-6,7,8,9-tetrahydropyridino[1,2-a]indol-1-yl)-4-((2-hydroxyethyl)sulfonamido)-2-(6-azaspiro[2.5]oct-6-yl)benzamide]"
2,50 to 500,"COC1c2cc3c(NC(=O)c4ccc(NS(=O)(=O)CCO)cc4N4CCC5(CC4)CC5)cccc3n2CCC1(F)F (single isomer, unassigned) [Compound 385-P2, N-(8,8-difluoro-9-(methoxy-d3)-6,7,8,9-tetrahydropyridino[1,2-a]indol-1-yl)-4-((2-hydroxyethyl)sulfonamido)-2-(6-azaspiro[2.5]oct-6-yl)benzamide]"
3,50 to 500,"CN1CCCc2c(NC(=O)c3ccc(NS(=O)(=O)CCO)cc3N3CCC4(CC3)CC4)ccnc21 [Example 7, 4-(2-hydroxyethyl)sulfonamido-N-(8-methyl-5,6,7,8-tetrahydro-1,8-naphthyridin-4-yl)-2-(6-azaspiro[2.5]octan-6-yl)benzamide]"
4,50 to 500,"O=C(Nc1ccnc2c1CCCN2CC1CC1)c1ccc(NS(=O)(=O)CCO)cc1N1CCC2(CC1)CC2 [Example 8, 4-(2-hydroxyethyl)sulfonamido-N-(8-cyclopropylmethyl-5,6,7,8-tetrahydro-1,8-naphthyridin-4-yl)-2-(6-azaspiro[2.5]octan-6-yl)benzamide]"
5,50 to 500,"Cn1ccc2c(NC(=O)c3ccc(NS(=O)(=O)CCO)cc3N3CCC4(CC3)CC4)cccc21 [Example 10, 4-((2-hydroxyethyl)sulfonamido)-N-(1-methyl-1H-indol-4-yl)-2-(6-azaspiro[2.5]octan-6-yl)benzamide]"
6,500 to 5000,"CN1CCCCc2c(NC(=O)c3ccc(NS(=O)(=O)CCO)cc3N3CCC4(CC3)CC4)cccc21 [Example 11, 4-((2-hydroxyethyl)sulfonamido)-N-(1-methyl-2,3,4,5-tetrahydro-1H-benzo[b]azepin-6-yl)-2-(6-azaspiro[2.5]octan-6-yl)benzamide]"
7,500 to 5000,O=C(Nc1cccc2c1CCCCN2CC1CC1)c1ccc(NS(=O)(=O)CCO)cc1N1CCC2(CC1)CC2 [Example 12]
8,50 to 500,"O=C(Nc1cccc2c1CCN2CC1CCC1)c1ccc(NS(=O)(=O)CCO)cc1N1CCC2(CC1)CC2 [Example 14, N-(1-(cyclobutylmethyl)dihydroindol-4-yl)-4-((2-hydroxyethyl)sulfonamido)-2-(6-azaspiro[2.5]octan-6-yl)benzamide]"
9,500 to 5000,"O=C(Nc1cccc2c1CCN2CC1CCCC1)c1ccc(NS(=O)(=O)CCO)cc1N1CCC2(CC1)CC2 [Example 15, N-(1-(cyclopentylmethyl)dihydroindol-4-yl)-4-((2-hydroxyethyl)sulfonamido)-2-(6-azaspiro[2.5]oct-6-yl)benzamide]"
10,> 5000,"O=C(Nc1cccc2c1C1(CC1)C(=O)N2CC1CC1)c1ccc(NS(=O)(=O)CCO)cc1N1CCC2(CC1)CC2 [Example 17, N-(1′-(cyclopropylmethyl)-2′-oxospiro[cyclopropane-1,3′-indolin]-4′-yl)-4-((2-hydroxyethyl)sulfonamido)-2-(6-azaspiro[2.5]octan-6-yl)benzamide]"
11,> 5000,"O=C(Nc1cnc2n1CCCC2)c1ccc(NS(=O)(=O)CCO)cc1N1CCC2(CC1)CC2 [Example 19, 4-((2-hydroxyethyl)sulfonamido)-2-(6-azaspiro[2.5]octan-6-yl)-N-(5,6,7,8-tetrahydroimidazo[1,2-a]pyridin-3-yl)benzamide]"
12,50 to 500,O=C(Nc1ccnc(N2CCC(F)(F)CC2)c1)c1ccc(NS(=O)(=O)CCO)cc1OC1CCCCC1 [Example 22]
13,> 5000,"O=C(Nc1ccnc(N2CCC(F)(F)CC2)c1)c1ccc(NS(=O)(=O)CCO)cc1OC1CCOCC1 [Example 23, N-(2-(4,4-difluoropiperidin-1-yl)pyridin-4-yl)-4-((2-hydroxyethyl)sulfonamide)-2-((tetrahydro-2H-pyran-4-yl)oxy)benzamide]"
14,500 to 5000,"O=C(Nc1ccnc(N2CCC(F)(F)CC2)c1)c1ccc(NS(=O)(=O)CCO)cc1OC1CCC(F)(F)CC1 [Example 24, 2-((4,4-difluorocyclohexyl)oxy)-N-(2-(4,4-difluoropiperidin-1-yl)pyridin-4-yl)-4-((2-hydroxyethyl)sulfonamide)benzamide]"
15,> 5000,"O=C(Nc1cccc2c1CCN2CC1CC1)c1ccc(NS(=O)(=O)CCO)c2c1OCCO2 [Example 25, N-(1-(cyclopropylmethyl)indolin-4-yl)-8-((2-hydroxyethyl)sulfonamido)-2,3-dihydrobenzo[b][1,4]dioxine-5-carboxamide]"
16,50 to 500,"Cc1cc(NC(=O)c2ccc(NS(=O)(=O)CCO)cc2OC2CC3(CCC3)C2)nc(N2CCC(F)(F)CC2)n1 [Example 26, N-(2-(4,4-difluoropiperidin-1-yl)-6-methylpyrimidin-4-yl)-4-((2-hydroxyethyl)sulfonamido)-2-(spiro[3.3]heptan-2-yloxy)benzamide]"
17,500 to 5000,"O=C(Nc1cccc2c1CCN2CC1CC1)c1ccc(NS(=O)(=O)CCO)cc1OC1CCCCC1 [Example 27, 2-(cyclohexyloxy)-N-(1-(cyclopropylmethyl)indolin-4-yl)-4-((2-hydroxyethyl)sulfonamide)benzamide]"
18,> 5000,"O=C(Nc1cccc2c1CCN2CC1CC1)c1ccc(NS(=O)(=O)CCO)cc1OC1CCC(F)(F)CC1 [Example 29, N-(1-(cyclopropylmethyl)indolin-4-yl)-2-((4,4-difluorocyclohexyl)oxy)-4-((2-hydroxyethyl)sulfonamide)benzamide]"
19,50 to 500,"O=C(Nc1ccnc2c1CCN2CC1CC1)c1ccc(NS(=O)(=O)CCO)cc1N1CCC2(CC1)CC2 [Example 32, N-(1-(cyclopropylmethyl)-2,3-dihydro-1H-pyrrolo[2,3-b]pyridin-4-yl)-4-((2-hydroxyethyl)sulfanilamido)-2-(6-azaspiro[2.5]octan-6-yl)4-benzamide]"
20,≤ 50,"O=C(Nc1ccnc2c1ccn2CC1CC1)c1ccc(NS(=O)(=O)CCO)cc1N1CCC2(CC1)CC2 [Example 33, N-(1-(cyclopropylmethyl)-1H-pyrrolo[2,3-b]pyridin-4-yl)-4-((2-hydroxyethyl)sulfanilamido)-2-(6-azaspiro[2.5]octan-6-yl)4-benzamide]"
21,500 to 5000,"O=C(Nc1ncnc2c1ccn2CC1CC1)c1ccc(NS(=O)(=O)CCO)cc1N1CCC2(CC1)CC2 [Example 34, N-(7-(cyclopropylmethyl)-7H-pyrrolo[2,3-d]pyrimidin-4-yl)-4-((2-hydroxyethyl)sulfonamido)-2-(6-azaspiro[2.5]octan-6-yl)benzamide]"
22,50 to 500,"Cc1cc(NC(=O)c2ccc(NS(=O)(=O)CCO)cc2N2CCC3(CC2)CC3)c2ccn(CC3CC3)c2n1 [Example 37, N-(1-(cyclopropylmethyl)-6-methyl-1H-pyrrolo[2,3-b]pyridin-4-yl)-4-((2-hydroxyethyl)sulfonamido)-2-(6-azaspiro[2.5]oct-6-yl)benzamide]"
23,50 to 500,"O=C(Nc1cccc2c1ccn2CC1CC1)c1ccc(NS(=O)(=O)CCO)nc1N1CCC2(CC1)CC2 [Example 38, N-(1-(cyclopropylmethyl)-1H-indol-4-yl)-6-((2-hydroxyethyl)sulfonamido)-2-(6-azaspiro[2.5]oct-6-yl)nicotinamide]"
24,50 to 500,CNc1cc(NS(=O)(=O)CCO)cc(N2CCC3(CC2)CC3)c1C(=O)Nc1cccc2c1ccn2CC1CC1 [Example 39]
25,50 to 500,CNc1cc(NS(=O)(=O)CCO)cc(N2CCC3(CC2)CC3)c1C(=O)Nc1ccnc2c1ccn2CC1CC1 [Example 40]

row,SMILES,IC50 [nM]
1,"CN1CCc2c(NC(=O)c3ccc(NS(=O)(=O)CCO)cc3N3CCC4(CC3)CC4)cccc21 [Example 6, 4-(N-(2-hydroxyethyl)sulfonamido)-N-(1-methylindolin-4-yl)-2-(6-azaspiro[2.5]octan-6-yl)benzamide]",50 to 500
2,"O=C(Nc1ccnc(N2CCC(F)(F)CC2)c1)c1ccc(NS(=O)(=O)CCO)cc1OC1CCCC1 [Example 28, 2-(cyclopentoxy)-N-(2-(4,4-difluoropiperidin-1-yl)pyridin-4-yl)-4-((2-hydroxyethyl)sulfonamide)benzamide]",500 to 5000
3,"O=C(Nc1cccc2c1CCN2CC1CC1)c1ccc(NS(=O)(=O)CCO)cc1OC1CCCC1 [Example 30, 2-(cyclopentoxy)-N-(1-(cyclopropylmethyl)indolin-4-yl)-4-((2-hydroxyethyl)sulfonamide)benzamide]",500 to 5000
